Assays:
[1] = biological target: [3H]BMB binding sites on rat myelin fractions; test: Competition binding assay using [3H]BMB as radioligand in isolated myelin fractions; details: 1.87 nM [3H]BMB, Cheng-Prusoff from IC50
Procedure: FIG. 4 illustrates plots of competition binding assays of test compounds using [^3H]BMB as the radioligand in isolated myelin fractions. The concentrations that inhibited 50% of specific binding of [^3H]BMB (IC50 values) were converted to inhibition constant (Ki). Ki values were calculated using the Cheng-Prusoff equation: Ki=IC50/(1+[L]/Kd), where [L] is the concentration of [^3H]BMB used in the assay. Data are means of three independent measurements done in duplicate.
In vitro binding assay using radioligand is the most sensitive techniques available to quantitatively determine the binding affinities of compounds to certain proteins. Our previous studies have shown that BMB binds to myelin sheaths with high affinity and specifity (Stankoff, B.; Wang, Y.; Bottlaender, M.; Aigrot, M. S.; Dolle, F. et al. Imaging of CNS myelin by positron-emission tomography. Proc Natl Acad Sci USA 2006, 103, 9304-9309). For this reason, tritiated BMB was custom synthesized by American Radiolabeled Chemicals Inc. (St Louis, Mo.) and was used as the radioligand for binding assays. This allowed us to determine the binding affinities of the newly synthesized compounds using isolated rat myelin fractions. Saturation experiment was first conducted using [^3H]BMB. […] Competitive binding assays were also conducted using [^3H]BMB as radioligand. The stilbene derivatives competed effectively with [^3H]BMB binding sites on rat myelin fractions at affinities of low micromole concentrations.
(§1) Sprague-Dawley (SD) rats were asphyxiated with CO2. When the rat had stopped breathing, the skin/fur over the neck was wetted with a spray of 70% ethanol. […] The concentration of myelin and pellet were determined by Bio-Rad Protein Assay.
The radioligand-based binding assays were carried out in 12×75 mm borosilicate glass tubes. […] Nonspecific binding was defined in the presence of cold BMB (1 μM, diluted in PBS (containing 1% DMSO) in the same assay tubes. For the competition binding, 10^−5 to 10^−10 M compounds and 1.87 nM [^3H]BMB were used for the studies. The mixture was incubated at 37° C. for 2 hrs. The bound and free radioactivity were separated by rapid vacuum filtration through Whatman GF/B filters using a Brandel M-24R cell harvester followed by 3×2 mL washes of PBS at room temperature. Filters containing the bound radioligand were dissolved in 6 mL biodegradable counting cocktail overnight and the radioactivity was assayed next day in the scintillation counter (Beckman) with 42% counting efficiency. The results of saturation and inhibition experiments were subjected to nonlinear regression analysis using Graph Pad Prism 4 by which Kd and Ki values were calculated.

[2] = test system: myelinated corpus callosum and cerebellum; test: In vitro staining of myelinated white matter in mouse brain tissue sections (fluorescent microscopy); assay type: binding; details: 10 μM, wild-type mouse brain sections
Procedure: We then evaluated the myelin-binding properties of the newly synthesized compounds 3, 6, and 7 through in vitro staining of mouse brain tissue sections. Both myelinated corpus callosum and cerebellar regions were then examined by fluorescent microscopy.
Normal control mice were deeply anesthetized and perfused transcardially with saline (10 mL) followed by fixation with 4% PFA in PBS (10 mL, 4° C., pH 7.6). Brain tissues were then removed, postfixed by immersion in 4% PFA overnight, dehydrated in 30% sucrose solution, embedded in freezing compound (OCT, Fisher Scientific, Suwanee, Ga.), cryostat sectioned at 10 μm on a microtome and mounted on superfrost slides (Fisher Scientific). The brain sections were incubated with compound 3, 6 and 7 (10 μM, 1% DMSO in PBS (10 mM, pH 7.0)) for 20 minutes at room temperature in dark. Excess compounds were washed by briefly rinsing the slides in PBS (10 mM, pH 7.0) and coversliped with fluoromount-G mounting media (Vector Laboratories, Burlingame, Calif.). Sections were then examined under a Leica DRMB microscope equipped for fluorescence.

[3] = Solubility in organic solvents; assay type: physicochemical
[4] = test system: isolated myelin fractions; test: Spectrophotometry-based binding assay with isolated myelin fractions; parameters: species or system rat; details: 10 μM compound per tube, 1 h room temperature
Procedure: (§2) FIG. 2 illustrates plots of the concentrations of free, unbound 6 and 7 following incubation with isolated myelin fractions and non-myelin pellets based upon a spectroscopic assay. In these assays, 10 μM of 6 and 7 was added to each solution containing myelin fractions or non-myelin pellets at various concentrations ranging from 0-2.5 μg per tube. Each data point was repeated in triplicate and an average was used.
Binding affinities of newly synthesized compounds 6 and 7 were determined based on spectrophotometry. […] The desired proteins were aliquoted and frozen at −80° C. for up to 6 months without noticeable change in its properties determined by electrophoresis (data not shown). […] The free and bound tested compounds were then separated by centrifuging at 6000 rpm for 10 min and quantified.
Sprague-Dawley (SD) rats were asphyxiated with CO2. […] The concentration of myelin and pellet were determined by Bio-Rad Protein Assay.
In the spectrophotometry-based binding assays, a solution of 6 or 7 (800 μL, 12.5 μM) dissolved in 10% DMSO buffer solution containing 10 mM MgCl2 and 10 mM PBS (pH 7.4) was incubated with isolated myelin or pellets at different concentrations ranging from 0.06 to 14 μg/tube. […] In parallel, non-specific binding was determined using pellets under the same condition. […]

[5] = test system: non-myelin pellets; test: Spectrophotometry-based binding assay with non-myelin pellets; parameters: species or system rat; details: 1 h room temperature; for binding to non-myelin fractions: 10 μM compound per tube; for concentration of free, unbound compound (constant and close to the total concentration initially used): incubated with non-myelin pellet at increasing concentration
Procedure: as §2
Binding affinities of newly synthesized compounds 6 and 7 were determined based on spectrophotometry. Myelin sheaths and non-myelin pellets were extracted from rat's brain homogenates according to subcellular fraction protocol (Martenson, R. E.; Deibler, G. E.; Kies, M. W. Extraction of rat myelin basic protein free of other basic proteins of whole central nervous system tissue. An analysis of its electrophoretic heterogeneity. J Biol Chem 1969, 244, 4268-4272). Briefly, the homogenates were successively mixed with different concentrations of sucrose and spun in a Beckman ultracentrifuge. Myelin sheaths and non-myelin containing pellets were well separated according to their different densities and located in different layers of sucrose. The proteins were then collected and washed thoroughly with Colman buffer (10 mM). The desired proteins were aliquoted and frozen at −80° C. for up to 6 months without noticeable change in its properties determined by electrophoresis (data not shown). Prior to binding assays, the protein fractions (myelin and pellet) were thawed and diluted with PBS (10 mM, pH 7.0). A series of concentrations of the protein fractions were incubated with tested compounds (6 and 7, 12.5 μM) for 1 h at room temperature. The free and bound tested compounds were then separated by centrifuging at 6000 rpm for 10 min and quantified.
as §1
In the spectrophotometry-based binding assays, a solution of 6 or 7 (800 μL, 12.5 μM) dissolved in 10% DMSO buffer solution containing 10 mM MgCl2 and 10 mM PBS (pH 7.4) was incubated with isolated myelin or pellets at different concentrations ranging from 0.06 to 14 μg/tube. […] Following incubation at room temperature for 1 hr, the free and bound 6 or 7 was separated by centrifugation at 6000 rpm for 10 min The supernatant was then collected and the UV absorption of free 6 or 7 determined by UV spectrometer were at 350 nm or 363 nm. […] In parallel, non-specific binding was determined using pellets under the same condition. […]

[6] = test system: myelinated cerebellum; test: In situ tissue staining of myelinated white matter after tail vein injection; assay type: in vivo, mouse; details: 20-80 mg/kg tail vein, three hours post injection, wild-type mice
Procedure: Following our in vitro tissue staining studies, we then evaluated the brain permeability and subsequent myelin-binding properties of 6 and 7 in the mouse brain. A dose of 6 or 7 (20-80 mg/kg) was administered via tail vein injection into wild-type mice. Three hours post injection, the mouse brains were perfused with saline followed by 4% paraformaldehyde (PFA) and removed. The fresh frozen brains were then sectioned. Fluorescent staining of myelinated regions such as the cerebellum were then directly examined under a microscope.
Under anesthesia, wild-type mice were injected with compounds 6 and 7 (20-80 mg/kg) via the tail vein, and the mice were then perfused transcardially with saline (10 ml) followed by 4% PFA in PBS (10 ml, 4° C., pH 7.6). Brain tissues were then removed, postfixed by immersion in 4% PFA overnight, dehydrated in 30% sucrose solution, cryostat sectioned at 16 μm on a microtome and mounted on superfrost slides (Fisher Scientific), and imaged directly under fluorescent microscopy without any further staining.

| Structure (SMILES) | Ki [1] [nM] | in vitro fluorescent staining of brain tissue sections [2] | solubility [3] | binding to myelin fractions (free concentration decreased proportionally with myelin concentration) [4] | binding to non-myelin fractions [5] | concentration of free, unbound compound (constant and close to the total concentration initially used) [5] [µM] | brain entry and in situ labeling of myelin [6] |
| --- | --- | --- | --- | --- | --- | --- | --- |
| Nc1ccc(/C=C/c2ccc(N)cc2)cc1 [Compound 3, (E)-4,4′-diamino-trans-stilbene] | 370 | selectively labeled both corpus callosum and cerebellum | soluble in EtOH, CH2Cl2, DMSO and other organic solvents |  |  |  |  |
| CN(C)c1ccc(/C=C/c2ccc(N)cc2)cc1 [Compound 6, (E)-dimethyl-{4-[2-(4-amino-phenyl)-vinyl]-phenyl}-amine] | 119 | selectively labeled both corpus callosum and cerebellum | soluble in EtOH, CH2Cl2, DMSO and other organic solvents | specific binding interactions exist | no binding to the non-myelin fractions | ~10.47 | readily entered the mouse brain and selectively labeled myelinated cerebellum |
| CNc1ccc(C=Cc2ccc(N)cc2)cc1 [Compound 7, N-methyl-{4-[2-(4-amino-phenyl)-vinyl]-phenyl}-amine] | 126 | selectively labeled both corpus callosum and cerebellum | soluble in EtOH, CH2Cl2, DMSO and other organic solvents | specific binding interactions exist | no binding to the non-myelin fractions | ~10.53 | readily entered the mouse brain and selectively labeled myelinated cerebellum |
| Nc1ccc(C=Cc2ccc(I)cc2)cc1 [Compound 9, 4-[2-(4-Iodo-phenyl)-vinyl]-phenylamine] | 494 |  |  |  |  |  |  |
